Active and inactive are the calls of the source. The rule behind the calls is not given here.
The compounds below were run on Candida albicans (assay: Antifungal activity against Candida albicans assessed as fungal growth inhibition).
Assay type: functional, organism-based

Row | Structure (SMILES) | Activity
1 | COc1cc2c(cc1O)[C@H](c1cc(OC)c(O)c(OC)c1)[C@@H](COC1OC[C@@H](O)[C@H](O)[C@H]1O)[C@H](CO)C2 (stereo not given in full) | inactive
2 | COc1cc(O)c2c(=O)c(O[C@@H]3O[C@@H](C)[C@H](O)[C@@H](O)[C@H]3O)c(-c3ccc(O)c(O)c3)oc2c1 | inactive
3 | COc1cc(C(=O)OC[C@H]2O[C@@H](Oc3c(O)c(OC)cc4ccc(=O)oc34)[C@H](O)[C@@H](O)[C@@H]2O)cc(OC)c1O | inactive
4 | COc1cc(C(=O)OC[C@H]2O[C@@H](Oc3c(O)c(OC)cc4ccc(=O)oc34)[C@H](O)[C@@H](O)[C@@H]2O)ccc1O | inactive
5 | COc1cc([C@H]2c3cc(O)c(OC)cc3C[C@@H](CO)[C@@H]2COC2OC[C@@H](O)[C@H](O)[C@H]2O)ccc1O (stereo not given in full) | inactive
6 | COc1ccc(-c2oc3cc(OC)cc(OC)c3c(=O)c2OC)cc1 | inactive
7 | COc1cc([C@@H]2Oc3c(OC)cc(CCCO)cc3[C@H]2CO)ccc1O[C@@H]1O[C@@H](C)[C@H](O)[C@@H](O)[C@H]1O | inactive
8 | COc1ccc(-c2cc(=O)c3c(OC)cc(OC)cc3o2)cc1 | inactive
9 | COc1cc(C[C@@H](CO)[C@H](COC2OC[C@@H](O)[C@H](O)[C@H]2O)Cc2cc(OC)c(O)c(OC)c2)cc(OC)c1O (stereo not given in full) | inactive
10 | COc1ccc(-c2cc(=O)c3c(O)cc(O)cc3o2)cc1 | inactive

Source: ChEMBL document CHEMBL4706675, “Ulmusakidian, a new coumarin glycoside and antifungal phenolic compounds from the root bark of Ulmus davidiana var. japonica” (2021)
